Test results reported in patent US7863283B2, “Sulphoximine-substituted quinazoline derivatives as immuno-modulators, their preparation and use as medicaments” (Bayer Schering Pharma AG, priority 2008, dated 2011).

Experiments:
[1] = tested on: TNF-α; experiment: TLR-induced cytokine release in human PBMC: TNF-alpha (ELISA); type: cell-based; conditions: human PBMC stimulated using a TLR ligand, incubated 18 hours with test substance, supernatant ELISA
Procedure: (§1) TLR-Induced Cytokine Release in Human “Peripheral Blood Mononuclear Cells” (PBMC)
(§2) PBMCs isolated from human whole blood are stimulated using a TLR ligand. The cytokine determination is carried out by means of ELISA kits; a proliferation/cell metabolism determination is carried out using Alamar Blue.
(§3) For the cell preparation, about 200 ml of blood are treated with an anticoagulant (e.g. citrate Monovettes). Per Leucosep tube, 15 ml of Histopaque (room temperature, RT) are poured in and pressed downwards through the frit employed by brief initial centrifugation (one minute at 1000×g, RT). 20 ml of blood are added to the tubes prepared in this way and centrifuged at 800×g for 15 minutes (RT). After centrifugation, the following layered arrangement results from the top to the bottom: plasma—PBMC—Histopaque—filter disc—Histopaque—erythrocytes and granulocytes. The supernatant plasma is aspirated. The PBMC are transferred together with the underlying Histopaque to a new 50 ml tube, the contents of two Leucosep tubes always being added to one 50 ml tube. The 50 ml tubes are then filled to 50 ml with PBS. This cell suspension is centrifuged at 300×g (RT) for 10 minutes. The liquid supernatant is tipped off and the cell pellet is resuspended with a little PBS and subsequently filled to 50 ml with PBS. This washing step is repeated twice. The resulting pellet is taken up in a defined volume of medium (with additives). For the testing of the substances, PBMC are incubated for 18 hours with titrated concentrations of the test substances, e.g. in the presence or absence of TLR ligands. On the next day, the supernatants are investigated for the content of IL-12, TNF-alpha or other chemokines by means of specific ELISA. The metabolic activity of the treated cells is determined with the aid of Alamar Blue.

[2] = tested on: IL-12; experiment: TLR-induced cytokine release in human PBMC: IL-12 (ELISA); type: cell-based; conditions: human PBMC stimulated using a TLR ligand, incubated 18 hours with test substance, supernatant ELISA
Procedure: as §1, §2, §3

IC50 [1]	IC50 [2]	Structure (SMILES)
2100 nM	4.1 µM	CC(C)Nc1ncnc2cc(OCc3cccc(S(C)(=N)=O)c3)c(Br)cc12 (racemic) [Example 1.2, (RS)-S-[3-({[6-Bromo-4-(isopropylamino)quinazolin-7-yl]oxy}methyl)phenyl]-S-methylsulphoximide]
1000 nM	4 µM	CC(C)Nc1ncnc2cc(OCc3cncc(S(C)(=N)=O)c3)c(Br)cc12 (racemic) [Example 3.7, (RS)-S-[5-({[6-Bromo-4-(isopropylamino)quinazolin-7-yl]oxy}methyl)pyridin-3-yl]-S-methylsulphoximide]
200 nM	0.4 µM	CCS(=N)(=O)c1cccc(COc2cc3ncnc(NC(C)C)c3cc2OC)c1 (racemic) [Example 2.10, (RS)-S-Ethyl-S-[3-({[4-(isopropylamino)-6-methoxyquinazolin-7-yl]oxy}-methyl)phenyl]sulphoximide]

Second part, the compound before the results:

Structure (SMILES)	IC50 [1]	IC50 [2]
COc1cc2c(NC(C)C)ncnc2cc1OCCCS(C)(=N)=O (racemic) [Example 3.4, (RS)-S-(4-{[4-(Isopropylamino)-6-methoxyquinazolin-7-yl]oxy}propyl)-S-methyl-sulphoximide]	10000 nM	15 µM
CC(C)Nc1ncnc2cc(OCc3ccc(S(C)(=N)=O)cc3)c(Br)cc12 (racemic) [Example 2.8, (RS)-S-[4-({[6-Bromo-4-(isopropylamino)quinazolin-7-yl]oxy}methyl)phenyl]-S-methylsulphoximide]	4000 nM	15 µM
